Test [1] concerns MCF-7 cells. As to the kind of experiment: Monodansylcadaverine (MDC) staining assay for autophagy. In kind it is cell-based, human. Particulars: 24 h, compared with control; 3-MA as co-treatment with E10. The protocol:
To investigate whether E10 induced autophagy in MCF-7 cells, we performed Monodansylcadaverine (MDC) staining, transmission electron microscopy (TEM), and Western blot analysis to evaluate autophagy-related markers. MDC is a fluorescent probe commonly used to detect the formation of autophagic vacuoles, as it specifically labels autophagosomes.
MDC is a staining indicator for the formation of autophagosome. MCF-7 cells were seeded at a density of 2 × 10^5 cells per well in 6-well plates. MCF-7 cells were inoculated into a 6-well plate, and the cells were treated with E10 for 24 h. The treated cells were washed twice with buffer and then stained with MDC (Beijing Solarbio Science & Technology Co., Ltd., Beijing, China) for 40 min. The cells were then detected under a fluorescence microscope (Carl Zeiss, Jena, Germany).

Test [2] concerns MCF-7 cells. The test can be described thus: Intracellular ROS assay (DCFH-DA, flow cytometry). In kind it is cell-based, human. The following applies: 24 h, compared to control. Here is the method: Oxidative stress is known to increase intracellular reactive oxygen species (ROS) levels and to contribute to cell apoptosis and autophagy. To investigate whether E10 induced intracellular ROS accumulation, ROS levels in MCF-7 cells were determined by flow cytometric assay using DCFH-DA as a redox-sensitive probe.
For the detection of intracellular ROS levels, MCF-7 cells were seeded at a density of 5 × 10^5 cells per well in a 12-well plate and treated with different concentrations of compound E10 for 24 h. The cells were collected and stained with 5 μM of DCFH-DA dye (Yeasen, Shanghai, China, 50101ES01) in the incubator for 30 min. Flow cytometry (BD) detected the stained cell samples, and the data were analyzed using FlowJo software.

The test system of test [3] is LO2. The test can be described thus: CCK-8 cytotoxicity on normal cell line LO2. In kind it is cell-based. The following applies: Homo sapiens, L02; normal liver cells, CCK-8, 48 h, mean ± SD of three experiments. Here is the method:
Three cancer cell lines (human breast adenocarcinoma cells MCF-7, human lung adenocarcinoma epithelial cells A549, and human hepatocellular carcinoma cells HepG2) were obtained from the Cell Bank of the Chinese Academy of Sciences (Shanghai, China). LO2 human normal liver cells were also purchased from STEM RECELL (Beijing, China, STM-CL-5770). The anti-proliferation activity of compounds was tested on three cancer cell lines. The cytotoxicity of compounds as tested on normal cell line (human normal liver cells LO2). Cells were seeded at a density of 5000 cells per well in 96-well plates. Natural product piperlongumine was used as the positive control. All experiments were performed in triplicate. Three cancer cell lines were cultured in High DMEM medium or RIPM 1640 containing 10% FBS (Sijiqing, Hangzhou, China) and 1% antibiotics at 37 °C in a 5% CO2 incubator. The experimental cells were seeded in a 96-well plate at 5000 cells per well and incubated for 24 h. The old medium was replaced with experimental medium, and the cells were cultured for 48 h. Afterward, 10 µL of CCK-8 solution was added to each well, and the cells were incubated for 3 h. The absorbance at 450 nm was measured using a microplate reader.

For the molecule `CC1(C)C2=CC(=O)N(C(=O)C=Cc3cccc(C(F)(F)F)c3)CC(C)(C)C23CCC1C3` (stereo not drawn) [E10, 5,5,9,9-Tetramethyl-3-(3-(3-(trifluoromethyl)phenyl)acryloyl)-4,5,6,7,8,9-hexahydro-5a,8-methanobenzo[d]azepin-2(3H)-one], the “MDC staining, autophagosome formation” value in test [1] is “significantly increased the number of punctate green fluorescence signals”. The “intracellular ROS levels” value in test [2] was “markedly increased”. Moreover, the IC50 in test [3] amounted to 14.41 ± 0.04 µM.

The values are drawn from publication PMC12526212, “Novel Isolongifolenone-Based Caprolactam Derivatives as Potential Anticancer Agents via the p53/mTOR/Autophagy Pathway” (Molecules, 2025).
